Measurements as given in the supplement of paper PMC10307832.

Experiments:
Assay in all cases: relative viability (nuclei count vs DMSO), 5 days (fraction); higher = more cells survive
[1] = system: RERF-LC-KJ
Summary of the method: (§1)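 Each reported value is a median over duplicate plates. It expresses relative viability: treated-well nuclei count divided by vehicle-well nuclei count. Lung cancer cell lines in 1536-well plates were dosed by pin tool a day after seeding, alone with one drug or with a fixed anchor-drug dose plus five library-drug doses (not always all listed) in √10 steps, and nuclei were counted after 5 days.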

[2] = system: NCI-H1563
Summary of the method: as §1

[3] = system: LCLC-97TM1
Summary of the method: as §1

[4] = system: NCI-H1651
Summary of the method: as §1

[5] = system: NCI-H838
Summary of the method: as §1

[6] = system: NCI-H727
Summary of the method: as §1

[7] = system: H3255
Summary of the method: as §1

[8] = system: LCLC-103H
Summary of the method: as §1

[9] = system: A-427
Summary of the method: as §1

[10] = system: NCI-H1793
Summary of the method: as §1

[11] = system: NCI-H23
Summary of the method: as §1

[12] = system: LU99A
Summary of the method: as §1

[13] = system: NCI-H2347
Summary of the method: as §1

[14] = system: PC-14
Summary of the method: as §1

[15] = system: PC-3 [JPC-3]
Summary of the method: as §1

[16] = system: SW 900
Summary of the method: as §1

[17] = system: NCI-H1650
Summary of the method: as §1

[18] = system: NCI-H460
Summary of the method: as §1

[19] = system: LK-2
Summary of the method: as §1

[20] = system: COR-L23
Summary of the method: as §1

[21] = system: NCI-H1944
Summary of the method: as §1

[22] = system: NCI-H650
Summary of the method: as §1

[23] = system: SW 1573
Summary of the method: as §1

[24] = system: 201T
Summary of the method: as §1

CC(C)Oc1cc(Nc2nc(N[C@@H](C)c3ccc(F)cn3)ncc2Cl)n[nH]1 [AZ23] + COc1cccc2cc(-c3nc([C@H]4CC[C@H](C(=O)O)CC4)n4ncnc(N)c34)[nH]c12 [OSI-027] (partner 0.5 µM)
relative viability ([1]; first compound 0.01 µM): 0.592
relative viability ([1]; first compound 0.03162 µM): 0.623
relative viability ([1]; first compound 0.3162 µM): 0.616
relative viability ([2]; first compound 0.01 µM): 0.768
relative viability ([2]; first compound 0.03162 µM): 0.775
relative viability ([2]; first compound 0.3162 µM): 0.775
relative viability ([3]; first compound 0.01 µM): 0.495
relative viability ([3]; first compound 0.03162 µM): 0.519
relative viability ([3]; first compound 0.3162 µM): 0.586
relative viability ([4]; first compound 0.03162 µM): 0.77
relative viability ([4]; first compound 0.3162 µM): 0.881
relative viability ([5]; first compound 0.01 µM): 0.437
relative viability ([5]; first compound 0.03162 µM): 0.402
relative viability ([5]; first compound 0.3162 µM): 0.424
relative viability ([6]; first compound 0.01 µM): 0.496
relative viability ([6]; first compound 0.03162 µM): 0.558
relative viability ([6]; first compound 0.3162 µM): 0.605
relative viability ([7]; first compound 0.01 µM): 0.55
relative viability ([7]; first compound 0.03162 µM): 0.618
relative viability ([7]; first compound 0.3162 µM): 0.635
relative viability ([8]; first compound 0.01 µM): 0.401
relative viability ([8]; first compound 0.03162 µM): 0.505
relative viability ([8]; first compound 0.3162 µM): 0.535
relative viability ([9]; first compound 0.01 µM): 0.37
relative viability ([9]; first compound 0.03162 µM): 0.448
relative viability ([9]; first compound 0.3162 µM): 0.34
relative viability ([10]; first compound 0.01 µM): 0.226
relative viability ([10]; first compound 0.03162 µM): 0.303
relative viability ([10]; first compound 0.3162 µM): 0.28
relative viability ([11]; first compound 0.03162 µM): 0.58
relative viability ([11]; first compound 0.3162 µM): 0.599
relative viability ([12]; first compound 0.01 µM): 0.264
relative viability ([12]; first compound 0.03162 µM): 0.312
relative viability ([12]; first compound 0.3162 µM): 0.286
relative viability ([13]; first compound 0.01 µM): 0.298
relative viability ([13]; first compound 0.03162 µM): 0.262
relative viability ([13]; first compound 0.3162 µM): 0.389
relative viability ([14]; first compound 0.03162 µM): 1.01
relative viability ([14]; first compound 0.3162 µM): 1.24
relative viability ([15]; first compound 0.01 µM): 0.857
relative viability ([15]; first compound 0.03162 µM): 0.71
relative viability ([15]; first compound 0.3162 µM): 0.742
relative viability ([16]; first compound 0.01 µM): 0.512
relative viability ([16]; first compound 0.03162 µM): 0.663
relative viability ([16]; first compound 0.3162 µM): 0.579
relative viability ([17]; first compound 0.03162 µM): 0.689
relative viability ([17]; first compound 0.3162 µM): 0.713
relative viability ([18]; first compound 0.01 µM): 0.382
relative viability ([18]; first compound 0.03162 µM): 0.657
relative viability ([18]; first compound 0.3162 µM): 0.885
relative viability ([19]; first compound 0.01 µM): 0.176
relative viability ([19]; first compound 0.03162 µM): 0.198
relative viability ([19]; first compound 0.3162 µM): 0.183
relative viability ([20]; first compound 0.01 µM): 0.758
relative viability ([20]; first compound 0.03162 µM): 0.868
relative viability ([20]; first compound 0.3162 µM): 0.822
relative viability ([21]; first compound 0.01 µM): 0.401
relative viability ([21]; first compound 0.03162 µM): 0.456
relative viability ([21]; first compound 0.3162 µM): 0.498
relative viability ([22]; first compound 0.01 µM): 0.463
relative viability ([22]; first compound 0.03162 µM): 0.564
relative viability ([22]; first compound 0.3162 µM): 0.579
relative viability ([23]; first compound 0.01 µM): 0.925
relative viability ([23]; first compound 0.03162 µM): 0.7
relative viability ([23]; first compound 0.3162 µM): 0.649
relative viability ([24]; first compound 0.01 µM): 0.504
relative viability ([24]; first compound 0.03162 µM): 0.827
relative viability ([24]; first compound 0.3162 µM): 0.728

CC(C)Oc1cc(Nc2nc(N[C@@H](C)c3ccc(F)cn3)ncc2Cl)n[nH]1 [AZ23] + Cc1nc(Nc2ncc(C(=O)Nc3c(C)cccc3Cl)s2)cc(N2CCN(CCO)CC2)n1 [Dasatinib] (partner 0.075 µM)
relative viability ([1]; first compound 0.01 µM): 0.91
relative viability ([1]; first compound 0.03162 µM): 0.948
relative viability ([1]; first compound 0.3162 µM): 0.891
relative viability ([2]; first compound 0.01 µM): 0.491
relative viability ([2]; first compound 0.03162 µM): 0.533
relative viability ([2]; first compound 0.3162 µM): 0.469
relative viability ([3]; first compound 0.01 µM): 0.924
relative viability ([3]; first compound 0.03162 µM): 0.889
relative viability ([3]; first compound 0.3162 µM): 0.829
relative viability ([4]; first compound 0.03162 µM): 0.471
relative viability ([4]; first compound 0.3162 µM): 0.386
relative viability ([5]; first compound 0.01 µM): 0.255
relative viability ([5]; first compound 0.03162 µM): 0.317
relative viability ([5]; first compound 0.3162 µM): 0.293
relative viability ([6]; first compound 0.01 µM): 0.393
relative viability ([6]; first compound 0.03162 µM): 0.402
relative viability ([6]; first compound 0.3162 µM): 0.362
relative viability ([7]; first compound 0.01 µM): 0.364
relative viability ([7]; first compound 0.03162 µM): 0.66
relative viability ([7]; first compound 0.3162 µM): 0.418
relative viability ([8]; first compound 0.01 µM): 0.443
relative viability ([8]; first compound 0.03162 µM): 0.576
relative viability ([8]; first compound 0.3162 µM): 0.499
relative viability ([9]; first compound 0.01 µM): 0.701
relative viability ([9]; first compound 0.03162 µM): 0.862
relative viability ([9]; first compound 0.3162 µM): 0.684
relative viability ([10]; first compound 0.01 µM): 0.375
relative viability ([10]; first compound 0.03162 µM): 0.404
relative viability ([10]; first compound 0.3162 µM): 0.383
relative viability ([11]; first compound 0.03162 µM): 0.883
relative viability ([11]; first compound 0.3162 µM): 0.761
relative viability ([12]; first compound 0.01 µM): 0.623
relative viability ([12]; first compound 0.03162 µM): 0.646
relative viability ([12]; first compound 0.3162 µM): 0.369
relative viability ([13]; first compound 0.01 µM): 0.235
relative viability ([13]; first compound 0.03162 µM): 0.298
relative viability ([13]; first compound 0.3162 µM): 0.274
relative viability ([14]; first compound 0.03162 µM): 0.273
relative viability ([14]; first compound 0.3162 µM): 0.246
relative viability ([15]; first compound 0.01 µM): 1.13
relative viability ([15]; first compound 0.03162 µM): 1.08
relative viability ([15]; first compound 0.3162 µM): 1.01
relative viability ([16]; first compound 0.01 µM): 0.385
relative viability ([16]; first compound 0.03162 µM): 0.593
relative viability ([16]; first compound 0.3162 µM): 0.541
relative viability ([17]; first compound 0.03162 µM): 0.33
relative viability ([17]; first compound 0.3162 µM): 0.299
relative viability ([18]; first compound 0.01 µM): 0.295
relative viability ([18]; first compound 0.03162 µM): 0.592
relative viability ([18]; first compound 0.3162 µM): 0.503
relative viability ([19]; first compound 0.01 µM): 0.262
relative viability ([19]; first compound 0.03162 µM): 0.286
relative viability ([19]; first compound 0.3162 µM): 0.335
relative viability ([20]; first compound 0.01 µM): 0.485
relative viability ([20]; first compound 0.03162 µM): 0.645
relative viability ([20]; first compound 0.3162 µM): 0.504
relative viability ([21]; first compound 0.01 µM): 0.198
relative viability ([21]; first compound 0.03162 µM): 0.246
relative viability ([21]; first compound 0.3162 µM): 0.208
relative viability ([22]; first compound 0.01 µM): 0.441
relative viability ([22]; first compound 0.03162 µM): 0.46
relative viability ([22]; first compound 0.3162 µM): 0.48
relative viability ([23]; first compound 0.01 µM): 0.747
relative viability ([23]; first compound 0.03162 µM): 0.605
relative viability ([23]; first compound 0.3162 µM): 0.52
relative viability ([24]; first compound 0.01 µM): 0.506
relative viability ([24]; first compound 0.03162 µM): 0.614
relative viability ([24]; first compound 0.3162 µM): 0.569
